According to publication PMC8155022 (Scientific Reports, 2021):

Columns and labels:
NEK2(h) = molecular target: T1, NEK2(h) (Homo sapiens, UniProt P51955); test: Kinase panel; assay type: biochemical
T1 construct: purchased Cerep (receptors, ion channels, transporters); Eurofins Panlabs (kinases)
Procedure: (§1) Kinase selectivity was conducted by Eurofins Panlabs Inc (St Charles, MO).

Cl- channel = test: Cerep panel; assay type: binding
Procedure: (§2) A panel of 52 different receptors, ion channels and transporters was tested by Cerep, Inc. (Redmond, WA).

[1] = system: CD4+ T cells under Treg polarizing conditions; test: in vitro human Treg differentiation, FOXP3 gene expression; assay type: cell-based; details: 6 days
Excerpt: Supplement Materials and Methods
In vitro human Treg differentiation
Human nTreg Suppressive Assay

JAK2(h) = molecular target: T2, JAK2(h) (Homo sapiens, UniProt O60674); test: Kinase panel; assay type: biochemical
T2 construct: purchased Cerep (receptors, ion channels, transporters); Eurofins Panlabs (kinases)
T2 sequence (O60674 whole entry): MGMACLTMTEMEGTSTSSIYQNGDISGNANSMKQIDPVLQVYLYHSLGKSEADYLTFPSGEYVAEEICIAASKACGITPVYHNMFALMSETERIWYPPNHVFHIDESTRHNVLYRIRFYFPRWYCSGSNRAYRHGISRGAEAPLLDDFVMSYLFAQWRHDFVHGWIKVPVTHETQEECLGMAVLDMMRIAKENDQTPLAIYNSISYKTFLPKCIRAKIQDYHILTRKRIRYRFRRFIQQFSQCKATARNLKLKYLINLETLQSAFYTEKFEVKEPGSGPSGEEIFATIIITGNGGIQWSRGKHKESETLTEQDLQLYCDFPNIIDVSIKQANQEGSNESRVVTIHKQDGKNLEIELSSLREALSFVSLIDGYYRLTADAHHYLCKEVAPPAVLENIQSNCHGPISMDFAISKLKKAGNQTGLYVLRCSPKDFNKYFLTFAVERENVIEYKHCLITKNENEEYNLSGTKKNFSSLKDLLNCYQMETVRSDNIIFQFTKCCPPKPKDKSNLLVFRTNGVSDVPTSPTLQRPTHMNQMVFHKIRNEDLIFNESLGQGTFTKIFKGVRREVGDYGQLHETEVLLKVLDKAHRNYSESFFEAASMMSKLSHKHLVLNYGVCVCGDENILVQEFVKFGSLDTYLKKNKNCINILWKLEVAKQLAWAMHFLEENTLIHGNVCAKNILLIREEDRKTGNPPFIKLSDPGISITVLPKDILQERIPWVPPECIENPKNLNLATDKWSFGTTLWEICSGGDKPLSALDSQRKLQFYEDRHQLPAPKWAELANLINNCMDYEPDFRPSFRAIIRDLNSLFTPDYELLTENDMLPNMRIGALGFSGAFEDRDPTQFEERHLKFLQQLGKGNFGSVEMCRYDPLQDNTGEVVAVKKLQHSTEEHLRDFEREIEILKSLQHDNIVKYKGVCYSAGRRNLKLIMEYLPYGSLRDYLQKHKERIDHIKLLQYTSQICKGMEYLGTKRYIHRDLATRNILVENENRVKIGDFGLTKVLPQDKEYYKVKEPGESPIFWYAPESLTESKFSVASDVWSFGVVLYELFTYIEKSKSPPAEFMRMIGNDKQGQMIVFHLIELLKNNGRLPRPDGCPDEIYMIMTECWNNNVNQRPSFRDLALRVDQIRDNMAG
Procedure: as §1

[2] = modeled plasma exposure in the CIA model; assay type: in vivo, mouse
MC4 (h) = molecular target: T3, MC4 (h) (Homo sapiens, UniProt P32245); test: Cerep panel; assay type: binding
T3 construct: purchased Cerep (receptors, ion channels, transporters); Eurofins Panlabs (kinases)
T3 sequence (P32245 whole entry): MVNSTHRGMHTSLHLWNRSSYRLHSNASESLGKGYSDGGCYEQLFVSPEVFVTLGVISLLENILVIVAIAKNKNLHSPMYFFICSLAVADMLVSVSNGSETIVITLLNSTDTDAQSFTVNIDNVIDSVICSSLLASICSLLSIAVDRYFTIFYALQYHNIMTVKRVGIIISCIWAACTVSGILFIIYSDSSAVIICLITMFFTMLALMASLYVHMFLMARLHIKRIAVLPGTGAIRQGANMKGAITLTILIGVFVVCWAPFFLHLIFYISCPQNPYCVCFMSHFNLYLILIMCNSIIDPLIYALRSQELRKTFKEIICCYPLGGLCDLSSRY
Procedure: as §2

5-HT-T = molecular target: T4, 5-HT-T (Homo sapiens, UniProt P31645); test: Cerep panel; assay type: binding
T4 construct: purchased Cerep (receptors, ion channels, transporters); Eurofins Panlabs (kinases)
Procedure: 28 GPCRs were evaluated through cAMP or calcium FLIPR assays[67]. A panel of 52 different receptors, ion channels and transporters was tested by Cerep, Inc. (Redmond, WA).

human whole blood = test: in vitro whole blood assay, IL-17A production; assay type: cell-based; details: human whole blood diluted 1:1; read-out: IC50, inhibition of IL-17A production
CaMKIδ(h) = molecular target: T5, CaMKIδ(h) (Homo sapiens, UniProt Q8IU85); test: Kinase panel; assay type: biochemical
T5 construct: purchased Cerep (receptors, ion channels, transporters); Eurofins Panlabs (kinases)
Procedure: as §1

AT1 = AT1 (Homo sapiens, UniProt P30556); test: GPCR panel, cAMP or calcium FLIPR assays; assay type: cell-based
Procedure: (§3) 28 GPCRs were evaluated through cAMP or calcium FLIPR assays[67].

H1 = H1 (Homo sapiens, UniProt P35367); test: GPCR panel, cAMP or calcium FLIPR assays; assay type: cell-based
H1, sequence (P35367 whole entry): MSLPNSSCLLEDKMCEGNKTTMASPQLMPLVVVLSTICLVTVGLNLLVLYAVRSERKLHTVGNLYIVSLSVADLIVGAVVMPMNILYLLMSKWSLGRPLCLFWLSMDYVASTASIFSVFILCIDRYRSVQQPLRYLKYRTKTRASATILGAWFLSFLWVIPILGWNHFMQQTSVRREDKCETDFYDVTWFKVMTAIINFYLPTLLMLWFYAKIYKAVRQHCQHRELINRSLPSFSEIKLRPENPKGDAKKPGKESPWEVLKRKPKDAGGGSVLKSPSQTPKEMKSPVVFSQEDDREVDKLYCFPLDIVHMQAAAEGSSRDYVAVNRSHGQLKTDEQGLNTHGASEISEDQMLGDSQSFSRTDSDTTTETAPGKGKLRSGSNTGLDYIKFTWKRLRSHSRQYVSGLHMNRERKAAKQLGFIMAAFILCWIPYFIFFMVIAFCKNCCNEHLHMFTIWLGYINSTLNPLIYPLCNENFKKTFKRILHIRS
Procedure: as §3

5-HT1A (h) = molecular target: T6, 5-HT1A (h) (Homo sapiens, UniProt P08908); test: Cerep panel; assay type: binding
T6 construct: purchased Cerep (receptors, ion channels, transporters); Eurofins Panlabs (kinases)
Procedure: as §2

ETA = ETA (Homo sapiens, UniProt P25101); test: GPCR panel, cAMP or calcium FLIPR assays; assay type: cell-based
ETA, sequence (P25101 21-427): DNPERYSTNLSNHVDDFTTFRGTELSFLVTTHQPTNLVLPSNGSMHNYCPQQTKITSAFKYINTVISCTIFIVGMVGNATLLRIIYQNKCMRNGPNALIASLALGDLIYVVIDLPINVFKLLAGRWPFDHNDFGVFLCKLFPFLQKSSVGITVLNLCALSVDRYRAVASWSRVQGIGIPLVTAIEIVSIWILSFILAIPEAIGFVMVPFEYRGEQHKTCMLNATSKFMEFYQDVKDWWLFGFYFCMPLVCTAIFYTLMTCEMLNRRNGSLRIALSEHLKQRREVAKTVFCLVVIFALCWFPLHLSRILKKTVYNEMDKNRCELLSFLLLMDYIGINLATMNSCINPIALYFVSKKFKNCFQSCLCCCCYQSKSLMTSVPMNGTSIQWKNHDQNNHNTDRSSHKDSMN
Procedure: as §3

ROCK-I(h) = molecular target: T7, ROCK-I(h) (Homo sapiens, UniProt Q13464); test: Kinase panel; assay type: biochemical
T7 construct: purchased Cerep (receptors, ion channels, transporters); Eurofins Panlabs (kinases)
Procedure: as §1

ERα = molecular target: T8, ERα (Homo sapiens, UniProt P03372); test: nuclear receptor cellular GAL4 reporter assay; assay type: cell-based; details: agonist and antagonist mode; read-out: potency in agonist and antagonist mode
T8 construct: expressed in transfected cells

CCR1 (h) = molecular target: T9, CCR1 (h) (Homo sapiens, UniProt P32246); test: Cerep panel; assay type: binding
T9 construct: purchased Cerep (receptors, ion channels, transporters); Eurofins Panlabs (kinases)
T9 sequence (P32246 whole entry): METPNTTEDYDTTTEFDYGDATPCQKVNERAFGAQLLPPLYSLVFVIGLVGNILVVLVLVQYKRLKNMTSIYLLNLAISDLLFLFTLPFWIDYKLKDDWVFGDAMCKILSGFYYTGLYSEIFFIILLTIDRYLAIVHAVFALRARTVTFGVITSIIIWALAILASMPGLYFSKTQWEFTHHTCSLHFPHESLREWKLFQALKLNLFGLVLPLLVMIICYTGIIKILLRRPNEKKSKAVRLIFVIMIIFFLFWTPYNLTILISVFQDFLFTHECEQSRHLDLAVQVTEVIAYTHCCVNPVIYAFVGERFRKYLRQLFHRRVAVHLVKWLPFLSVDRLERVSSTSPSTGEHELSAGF
Procedure: as §2

ADRA2A = ADRA2A (Homo sapiens, UniProt P08913); test: GPCR panel, cAMP or calcium FLIPR assays; assay type: cell-based
ADRA2A, sequence (P08913 whole entry, species assumed): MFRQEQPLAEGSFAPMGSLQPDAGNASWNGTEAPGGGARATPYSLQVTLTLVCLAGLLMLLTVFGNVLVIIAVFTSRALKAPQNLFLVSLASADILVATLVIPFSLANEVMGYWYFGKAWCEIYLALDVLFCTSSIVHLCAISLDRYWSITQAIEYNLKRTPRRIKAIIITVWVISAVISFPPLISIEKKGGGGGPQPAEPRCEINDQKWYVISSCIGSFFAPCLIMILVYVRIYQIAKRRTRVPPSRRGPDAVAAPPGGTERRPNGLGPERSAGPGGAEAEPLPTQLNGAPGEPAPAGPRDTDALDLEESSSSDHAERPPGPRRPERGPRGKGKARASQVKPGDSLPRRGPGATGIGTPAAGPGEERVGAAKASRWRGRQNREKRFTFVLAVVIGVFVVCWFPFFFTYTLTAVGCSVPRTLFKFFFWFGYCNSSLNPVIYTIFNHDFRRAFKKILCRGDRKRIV
Procedure: as §3

5-HT3 (h) = molecular target: T10, 5-HT3 (h) (Homo sapiens, UniProt P46098); test: Cerep panel; assay type: binding
T10 construct: purchased Cerep (receptors, ion channels, transporters); Eurofins Panlabs (kinases)
Procedure: as §2

M1 = M1 (Homo sapiens, UniProt P11229); test: GPCR panel, cAMP or calcium FLIPR assays; assay type: cell-based
Procedure: as §3

hNav1.5 = hNav1.5 (Homo sapiens, UniProt Q14524); test: follow-up functional study; assay type: cell-based; details: read-out: IC50 in follow-up functional studies
CK2(h) = molecular target: T11, CK2(h) (Homo sapiens, UniProt P68400); test: Kinase panel; assay type: biochemical
T11 construct: purchased Cerep (receptors, ion channels, transporters); Eurofins Panlabs (kinases)
Procedure: as §1

5HT7 = 5HT7 (Homo sapiens, UniProt P34969); test: GPCR panel, cAMP or calcium FLIPR assays; assay type: cell-based
Procedure: as §3

V1A = V1A (Homo sapiens, UniProt P37288); test: GPCR panel, cAMP or calcium FLIPR assays; assay type: cell-based
Procedure: 28 GPCRs were evaluated through cAMP or calcium FLIPR assays[67]. A panel of 52 different receptors, ion channels and transporters was tested by Cerep, Inc. (Redmond, WA). Kinase selectivity was conducted by Eurofins Panlabs Inc (St Charles, MO).

RARα = molecular target: T12, RARα (Homo sapiens, UniProt P10276); test: nuclear receptor cellular GAL4 reporter assay; assay type: cell-based; details: agonist and antagonist mode; read-out: potency in agonist and antagonist mode
T12 construct: expressed in transfected cells

CAR = molecular target: T13, CAR (Homo sapiens, UniProt Q14994); test: nuclear receptor cellular GAL4 reporter assay; assay type: cell-based; details: agonist and antagonist mode; read-out: potency in agonist and antagonist mode
T13 construct: expressed in transfected cells

IKKβ(h) = molecular target: T14, IKKβ(h) (Homo sapiens, UniProt O14920); test: Kinase panel; assay type: biochemical
T14 construct: purchased Cerep (receptors, ion channels, transporters); Eurofins Panlabs (kinases)
Procedure: as §1

V1a (h) = molecular target: T15, V1a (h) (Homo sapiens, UniProt P37288); test: Cerep panel; assay type: binding
T15 construct: purchased Cerep (receptors, ion channels, transporters); Eurofins Panlabs (kinases)
Procedure: as §2

CHK2(h) = molecular target: T16, CHK2(h) (Homo sapiens, UniProt O96017); test: Kinase panel; assay type: biochemical
T16 construct: purchased Cerep (receptors, ion channels, transporters); Eurofins Panlabs (kinases)
T16 sequence (O96017 whole entry): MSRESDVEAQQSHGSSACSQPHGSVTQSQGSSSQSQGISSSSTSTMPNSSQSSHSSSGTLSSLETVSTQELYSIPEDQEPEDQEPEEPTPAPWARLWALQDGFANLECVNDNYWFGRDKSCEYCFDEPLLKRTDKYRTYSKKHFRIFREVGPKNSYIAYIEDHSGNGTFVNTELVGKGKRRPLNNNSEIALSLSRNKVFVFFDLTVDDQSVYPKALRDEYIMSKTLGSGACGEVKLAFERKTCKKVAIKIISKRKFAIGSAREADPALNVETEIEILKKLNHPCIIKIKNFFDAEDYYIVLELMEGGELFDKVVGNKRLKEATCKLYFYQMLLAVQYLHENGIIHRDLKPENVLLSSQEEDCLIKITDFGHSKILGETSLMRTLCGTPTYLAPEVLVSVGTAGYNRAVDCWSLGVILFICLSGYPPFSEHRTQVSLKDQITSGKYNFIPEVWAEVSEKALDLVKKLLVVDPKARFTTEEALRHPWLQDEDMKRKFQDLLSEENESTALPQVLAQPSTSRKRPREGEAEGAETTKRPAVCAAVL
Procedure: as §1

[3] = molecular target: hGABAAα1β2γ2-gated Cl− channel (Homo sapiens, UniProt P14867+P18507+P47870); test: follow-up functional study; assay type: cell-based; details: read-out: IC50 in follow-up functional studies
CDK1/cyclinB(h) = molecular target: T17, CDK1/cyclinB(h) (Homo sapiens, UniProt P06493); test: Kinase panel; assay type: biochemical
T17 construct: purchased Cerep (receptors, ion channels, transporters); Eurofins Panlabs (kinases)
T17 sequence (P06493 whole entry): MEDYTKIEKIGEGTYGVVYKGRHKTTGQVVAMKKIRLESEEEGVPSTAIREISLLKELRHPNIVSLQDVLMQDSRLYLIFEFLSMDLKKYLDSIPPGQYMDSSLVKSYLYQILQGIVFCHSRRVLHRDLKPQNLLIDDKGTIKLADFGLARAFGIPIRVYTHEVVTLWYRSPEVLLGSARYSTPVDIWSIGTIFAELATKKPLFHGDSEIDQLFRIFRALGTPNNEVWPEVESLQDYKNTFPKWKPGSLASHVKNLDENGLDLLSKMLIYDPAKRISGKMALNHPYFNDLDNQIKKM
T17 sequence (P14635 whole entry partner): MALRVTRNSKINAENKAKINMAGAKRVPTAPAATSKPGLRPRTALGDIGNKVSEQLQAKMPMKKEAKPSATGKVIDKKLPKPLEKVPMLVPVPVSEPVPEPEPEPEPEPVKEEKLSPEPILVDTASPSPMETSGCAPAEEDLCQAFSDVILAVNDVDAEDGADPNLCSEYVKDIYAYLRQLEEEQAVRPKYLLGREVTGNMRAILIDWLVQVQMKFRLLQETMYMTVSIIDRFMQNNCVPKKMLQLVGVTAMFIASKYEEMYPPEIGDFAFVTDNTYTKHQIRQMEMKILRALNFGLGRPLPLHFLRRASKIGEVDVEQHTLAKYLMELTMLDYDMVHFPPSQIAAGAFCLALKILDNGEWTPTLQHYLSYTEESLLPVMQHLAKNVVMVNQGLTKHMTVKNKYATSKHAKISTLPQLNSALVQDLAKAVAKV
Procedure: as §1

mouse whole blood = test: in vitro whole blood assay, IL-17A production; assay type: cell-based; details: mouse whole blood diluted 1:4; read-out: IC50, inhibition of IL-17A production
H1 (h) = molecular target: T18, H1 (h) (Homo sapiens, UniProt P35367); test: Cerep panel; assay type: binding
T18 construct: purchased Cerep (receptors, ion channels, transporters); Eurofins Panlabs (kinases)
T18 sequence (P35367 whole entry): as the sequence (P35367 whole entry) above
Procedure: as §2

TrkC(h) = molecular target: T19, TrkC(h) (Homo sapiens, UniProt Q16288); test: Kinase panel; assay type: biochemical
T19 construct: purchased Cerep (receptors, ion channels, transporters); Eurofins Panlabs (kinases)
Procedure: as §1

M2 (h) = molecular target: T20, M2 (h) (Homo sapiens, UniProt P08172); test: Cerep panel; assay type: binding
T20 construct: purchased Cerep (receptors, ion channels, transporters); Eurofins Panlabs (kinases)
Procedure: as §2

T1 sequence (P51955 whole entry): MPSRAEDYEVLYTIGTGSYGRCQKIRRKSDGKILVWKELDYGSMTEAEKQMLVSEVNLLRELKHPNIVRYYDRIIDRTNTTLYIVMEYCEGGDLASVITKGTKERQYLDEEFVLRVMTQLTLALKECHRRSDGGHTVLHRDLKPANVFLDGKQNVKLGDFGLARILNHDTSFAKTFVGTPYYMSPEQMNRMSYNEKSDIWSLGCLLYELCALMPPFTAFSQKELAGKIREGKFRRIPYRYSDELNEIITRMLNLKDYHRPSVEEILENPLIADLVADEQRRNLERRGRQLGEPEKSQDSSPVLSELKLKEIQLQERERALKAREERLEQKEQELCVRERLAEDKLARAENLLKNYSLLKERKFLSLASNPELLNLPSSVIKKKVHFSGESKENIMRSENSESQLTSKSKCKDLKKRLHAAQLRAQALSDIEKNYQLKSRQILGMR

For CC1CCCN1C(=O)c1nc(C(=O)NCC(C)(C)O)sc1-c1ccc(C(O)(C(F)(F)F)C(F)(F)F)c(Cl)c1Cl (centres unmarked) [JNJ-61803534], the activity at 1 µM (NEK2(h)) was 102%, the activity at 10 µM (NEK2(h)) was 108% and the “% Inhibition at 1 µM” value (Cl- channel; 1 µM) was 10.5%. For the same molecule, the “% Inhibition at 10 µM” value (Cl- channel; 10 µM) was 86.4%, the “FOXP3 expression levels versus DMSO-treated cells” value [1] was “similar” and the activity at 1 µM (JAK2(h)) was 109%. The activity at 10 µM (JAK2(h)) was 105%, the Caverage ([2]; 3 mg/kg BID) was 702 nM and the Ctrough ([2]; 3 mg/kg BID) was 74 nM. The Caverage ([2]; 10 mg/kg BID) was 2032 nM, the Ctrough ([2]; 10 mg/kg BID) was 211 nM and the Caverage ([2]; 30 mg/kg BID) was 6909 nM. It also gave a Ctrough ([2]; 30 mg/kg BID) of 716 nM, a Caverage ([2]; 60 mg/kg QD) of 6909 nM and a Ctrough ([2]; 60 mg/kg QD) of 26 nM. It also gave a Caverage ([2]; 100 mg/kg BID) of 20321 nM, a Ctrough ([2]; 100 mg/kg BID) of 2106 nM and an inhibition at 1 µM (MC4 (h)) of less than 10%. The inhibition at 10 µM (MC4 (h)) was less than 10%, the inhibition at 1 µM (5-HT-T) was less than 10% and the inhibition at 10 µM (5-HT-T) was less than 10%. It also gave an IC50 (human whole blood) of 0.23 ± 0.11 µM, an activity at 1 µM (CaMKIδ(h)) of 81% and an activity at 10 µM (CaMKIδ(h)) of 100%. The EC50 (AT1; agonist) was greater than 5 µM, the IC50 (AT1; antagonist) was greater than 5 µM and the EC50 (H1; agonist) was greater than 10 µM. The IC50 (H1; antagonist) was greater than 10 µM, the inhibition at 1 µM (5-HT1A (h)) was less than 10% and the inhibition at 10 µM (5-HT1A (h)) was less than 10%. For the same molecule, the EC50 (ETA; agonist) was greater than 10 µM, the IC50 (ETA; antagonist) was greater than 10 µM and the activity at 1 µM (ROCK-I(h)) was 108%. For the same molecule, the activity at 10 µM (ROCK-I(h)) was 110%, the IC50 (ERα) was greater than 1.5 µM and the inhibition at 1 µM (CCR1 (h)) was less than 10%. The inhibition at 10 µM (CCR1 (h)) was less than 10%, the EC50 (ADRA2A; agonist) was greater than 12.5 µM and the IC50 (ADRA2A; antagonist) was greater than 12.5 µM. It also gave an inhibition at 1 µM (5-HT3 (h)) of less than 10%, an inhibition at 10 µM (5-HT3 (h)) of less than 10% and an EC50 (M1; agonist) greater than 10 µM. For the same molecule, the IC50 (M1; antagonist) was greater than 10 µM, the IC50 (hNav1.5) was greater than 30 µM and the activity at 1 µM (CK2(h)) was 109%. For the same molecule, the activity at 10 µM (CK2(h)) was 102%, the EC50 (5HT7; agonist) was greater than 12.5 µM and the IC50 (5HT7; antagonist) was greater than 12.5 µM. For the same molecule, the EC50 (V1A; agonist) was greater than 10 µM, the IC50 (V1A; antagonist) was greater than 10 µM and the IC50 (RARα) was greater than 1.5 µM. The IC50 (CAR) was greater than 1.5 µM, the activity at 1 µM (IKKβ(h)) was 75% and the activity at 10 µM (IKKβ(h)) was 138%. For the same molecule, the inhibition at 1 µM (V1a (h)) was less than 10%, the inhibition at 10 µM (V1a (h)) was 20.3% and the activity at 1 µM (CHK2(h)) was 107%. It also gave an activity at 10 µM (CHK2(h)) of 111%, an IC50 [3] greater than 30 µM and an activity at 1 µM (CDK1/cyclinB(h)) of 96%. The activity at 10 µM (CDK1/cyclinB(h)) was 108%, the IC50 (mouse whole blood) was 0.172 ± 0.05 µM and the inhibition at 1 µM (H1 (h)) was less than 10%. It also gave an inhibition at 10 µM (H1 (h)) of less than 10%, an activity at 1 µM (TrkC(h)) of 92% and an activity at 10 µM (TrkC(h)) of 88%. For the same molecule, the inhibition at 1 µM (M2 (h)) was less than 10% and the inhibition at 10 µM (M2 (h)) was less than 10%.
